Measured values from ChEMBL document CHEMBL3804830, “Efficient synthesis of new antiproliferative steroidal hybrids using the molecular hybridization approach” (Eur J Med Chem, 2016).

How the values were obtained:
[1] = Antiproliferative activity against human EC109 cells assessed as cell growth inhibition after 72 hrs by MTT assay; format: functional, cell-based; settings: ECa-109, 72 h
[2] = Antiproliferative activity against human MGC803 cells assessed as cell growth inhibition after 72 hrs by MTT assay; format: functional, cell-based; settings: MGC-803, 72 h
MCF7 = assay: cells; settings: Homo sapiens, MCF7, 72 h
Description: Antiproliferative activity against human MCF7 cells assessed as cell growth inhibition after 72 hrs by MTT assay

SH-SY5Y = assay: Antiproliferative activity against human SH-SY5Y cells assessed as cell growth inhibition after 72 hrs by MTT assay; format: functional, cell-based
[3] = Antiproliferative activity against human U87 cells assessed as cell growth inhibition after 72 hrs by MTT assay; format: functional, cell-based, U-87MG ATCC; settings: U-87 MG

Compound: C[C@]12CC[C@H](OC(=O)Cn3cc(CN4C(=O)C(=O)c5cc(F)ccc54)nn3)CC1=CC[C@@H]1[C@@H]2CC[C@]2(C)C(=O)CC[C@@H]12
- IC50 [1]: > 128 µM
- IC50 [2]: 58.9 µM
- IC50 (MCF7): > 128 µM
- IC50 (SH-SY5Y): 9.25 µM
- IC50 [3]: 91.1 µM

Compound: C[C@]12CC[C@H](OC(=O)Cn3cc(CN4C(=O)C(=O)c5cccc(Cl)c54)nn3)CC1=CC[C@@H]1[C@@H]2CC[C@]2(C)C(=O)CC[C@@H]12
- IC50 [1]: 84.6 µM
- IC50 [2]: 8.74 µM
- IC50 (MCF7): 13.3 µM
- IC50 (SH-SY5Y): 14.6 µM
- IC50 [3]: 20.8 µM

Compound: C[C@]12CC[C@H](OC(=O)Cn3cc(COc4ccc(C(=O)/C=C/c5ccc(Cl)c(Cl)c5)cc4)nn3)CC1=CC[C@@H]1[C@@H]2CC[C@]2(C)C(=O)CC[C@@H]12
- IC50 [1]: > 128 µM
- IC50 [2]: > 128 µM
- IC50 (MCF7): > 128 µM
- IC50 (SH-SY5Y): 36.6 µM
- IC50 [3]: > 128 µM

Compound: C[C@]12CC[C@H](OC(=O)Cn3cc(COc4ccc(C(=O)/C=C/c5ccc([N+](=O)[O-])cc5)cc4)nn3)CC1=CC[C@@H]1[C@@H]2CC[C@]2(C)C(=O)CC[C@@H]12
- IC50 [1]: > 128 µM
- IC50 [2]: 99.5 µM
- IC50 (MCF7): > 128 µM
- IC50 (SH-SY5Y): > 128 µM
- IC50 [3]: > 128 µM

Compound: Cc1cc(=O)oc2cc(OCc3cn(CC(=O)O[C@H]4CC[C@@]5(C)C(=CC[C@@H]6[C@@H]5CC[C@]5(C)C(=O)CC[C@@H]65)C4)nn3)ccc12
- IC50 [1]: > 128 µM
- IC50 [2]: > 128 µM
- IC50 (MCF7): > 128 µM
- IC50 (SH-SY5Y): 49.5 µM
- IC50 [3]: 47.4 µM

Compound: C[C@]12CC[C@H](OC(=O)Cn3cc(CN4C(=O)C(=O)c5cc(Br)ccc54)nn3)CC1=CC[C@@H]1[C@@H]2CC[C@]2(C)C(=O)CC[C@@H]12
- IC50 [1]: 44.1 µM
- IC50 [2]: 32.5 µM
- IC50 (MCF7): > 128 µM
- IC50 (SH-SY5Y): 10.3 µM
- IC50 [3]: 39.2 µM

Compound: Cc1ccc(OCc2cn(CC(=O)O[C@H]3CC[C@@]4(C)C(=CC[C@@H]5[C@@H]4CC[C@]4(C)C(=O)CC[C@@H]54)C3)nn2)cc1
- IC50 [1]: 23.9 µM
- IC50 [2]: 21.6 µM
- IC50 (MCF7): 38.6 µM
- IC50 (SH-SY5Y): 26.9 µM
- IC50 [3]: 18.5 µM

Compound: C[C@]12CC[C@H](OC(=O)Cn3cc(CN4C(=O)C(=O)c5ccccc54)nn3)CC1=CC[C@@H]1[C@@H]2CC[C@]2(C)C(=O)CC[C@@H]12
- IC50 [1]: > 128 µM
- IC50 [2]: > 128 µM
- IC50 (MCF7): > 128 µM
- IC50 (SH-SY5Y): 8.62 µM
- IC50 [3]: 45.6 µM

Compound: C[C@]12CC[C@H](OC(=O)Cn3cc(CN4C(=O)C(=O)c5c(Br)cccc54)nn3)CC1=CC[C@@H]1[C@@H]2CC[C@]2(C)C(=O)CC[C@@H]12
- IC50 [1]: 78.4 µM
- IC50 [2]: 26.4 µM
- IC50 (MCF7): > 128 µM
- IC50 (SH-SY5Y): > 128 µM
- IC50 [3]: 21.3 µM

Compound: C[C@]12CC[C@H](OC(=O)Cn3cc(COc4ccc(C(=O)/C=C/c5ccc(Br)cc5)cc4)nn3)CC1=CC[C@@H]1[C@@H]2CC[C@]2(C)C(=O)CC[C@@H]12
- IC50 [1]: 79.8 µM
- IC50 [2]: > 128 µM
- IC50 (MCF7): 112 µM
- IC50 (SH-SY5Y): 72.6 µM
- IC50 [3]: > 128 µM

Compound: C[C@]12CC[C@H](OC(=O)Cn3cc(Cn4cc(F)c(=O)n(Cc5cn(CC(=O)O[C@H]6CC[C@@]7(C)C(=CC[C@@H]8[C@@H]7CC[C@]7(C)C(=O)CC[C@@H]87)C6)nn5)c4=O)nn3)CC1=CC[C@@H]1[C@@H]2CC[C@]2(C)C(=O)CC[C@@H]12
- IC50 [1]: > 128 µM
- IC50 [2]: > 128 µM
- IC50 (MCF7): > 128 µM
- IC50 (SH-SY5Y): > 128 µM
- IC50 [3]: > 128 µM

Compound: C[C@]12CC[C@H](OC(=O)Cn3cc(COc4ccc(/C=C/C(=O)c5ccc(F)cc5)cc4)nn3)CC1=CC[C@@H]1[C@@H]2CC[C@]2(C)C(=O)CC[C@@H]12
- IC50 [1]: > 128 µM
- IC50 [2]: > 128 µM
- IC50 (MCF7): 91.5 µM
- IC50 (SH-SY5Y): 46.5 µM
- IC50 [3]: > 128 µM

Compound: C[C@]12CC[C@H](OC(=O)Cn3cc(COc4ccc(Br)cc4)nn3)CC1=CC[C@@H]1[C@@H]2CC[C@]2(C)C(=O)CC[C@@H]12
- IC50 [1]: 21 µM
- IC50 [2]: 48.2 µM
- IC50 (MCF7): 93.2 µM
- IC50 (SH-SY5Y): 22.7 µM
- IC50 [3]: 30.1 µM

Compound: O=c1c(F)cn(Cc2cn(Cc3ccccc3Cl)nn2)c(=O)n1Cc1cn(Cc2ccccc2Cl)nn1
- IC50 [1]: > 128 µM
- IC50 [2]: > 128 µM
- IC50 (MCF7): > 128 µM
- IC50 (SH-SY5Y): > 128 µM
- IC50 [3]: > 128 µM

Compound: C[C@]12CC[C@H](OC(=O)Cn3cc(CNc4cccc([N+](=O)[O-])c4)nn3)CC1=CC[C@@H]1[C@@H]2CC[C@]2(C)C(=O)CC[C@@H]12
- IC50 [1]: 55.4 µM
- IC50 [2]: 28.6 µM
- IC50 (MCF7): 45.2 µM
- IC50 (SH-SY5Y): > 128 µM
- IC50 [3]: > 128 µM

Compound: O=c1[nH]cc(F)c(=O)[nH]1 [FLUOROURACIL]
- IC50 [1]: 3.17 µM
- IC50 [2]: 1.25 µM
- IC50 (SH-SY5Y): 3.26 µM
- IC50 [3]: 5.61 µM

Compound: C[C@]12CC[C@H](OC(=O)Cn3cc(COc4cc(=O)oc5ccccc45)nn3)CC1=CC[C@@H]1[C@@H]2CC[C@]2(C)C(=O)CC[C@@H]12
- IC50 [1]: > 128 µM
- IC50 [2]: > 128 µM
- IC50 (MCF7): > 128 µM
- IC50 (SH-SY5Y): > 128 µM
- IC50 [3]: 40 µM

Compound: C[C@]12CC[C@H](OC(=O)Cn3cc(CN4C(=O)C(=O)c5cc(Cl)ccc54)nn3)CC1=CC[C@@H]1[C@@H]2CC[C@]2(C)C(=O)CC[C@@H]12
- IC50 [1]: 61.7 µM
- IC50 [2]: 57.8 µM
- IC50 (MCF7): > 128 µM
- IC50 (SH-SY5Y): 7.32 µM
- IC50 [3]: 47.9 µM

Compound: Cc1ccc(/C=C/C(=O)c2ccc(OCc3cn(CC(=O)O[C@H]4CC[C@@]5(C)C(=CC[C@@H]6[C@@H]5CC[C@]5(C)C(=O)CC[C@@H]65)C4)nn3)cc2)cc1
- IC50 [1]: > 128 µM
- IC50 [2]: > 128 µM
- IC50 (MCF7): 73.3 µM
- IC50 (SH-SY5Y): 50.1 µM
- IC50 [3]: > 128 µM

Compound: COc1ccc(NCc2cn(CC(=O)O[C@H]3CC[C@@]4(C)C(=CC[C@@H]5[C@@H]4CC[C@]4(C)C(=O)CC[C@@H]54)C3)nn2)cc1
- IC50 [1]: 24.7 µM
- IC50 [2]: 11.6 µM
- IC50 (MCF7): 21.3 µM
- IC50 (SH-SY5Y): 69.8 µM
- IC50 [3]: 96.5 µM

Compound: C[C@]12CC[C@H](OC(=O)Cn3cc(COc4ccccc4[N+](=O)[O-])nn3)CC1=CC[C@@H]1[C@@H]2CC[C@]2(C)C(=O)CC[C@@H]12
- IC50 [1]: 49.8 µM
- IC50 [2]: 51.3 µM
- IC50 (MCF7): 45.1 µM
- IC50 (SH-SY5Y): 65 µM
- IC50 [3]: > 128 µM

Compound: C[C@]12CC[C@H](OC(=O)Cn3cc(COc4ccc(/C=C/C(=O)c5ccccc5)cc4)nn3)CC1=CC[C@@H]1[C@@H]2CC[C@]2(C)C(=O)CC[C@@H]12
- IC50 [1]: 118 µM
- IC50 [2]: > 128 µM
- IC50 (MCF7): > 128 µM
- IC50 (SH-SY5Y): 75 µM
- IC50 [3]: > 128 µM

Compound: C[C@]12CC[C@H](OC(=O)Cn3cc(COc4ccc(C(=O)/C=C/c5ccc(F)c(F)c5)cc4)nn3)CC1=CC[C@@H]1[C@@H]2CC[C@]2(C)C(=O)CC[C@@H]12
- IC50 [1]: > 128 µM
- IC50 [2]: > 128 µM
- IC50 (MCF7): 92.6 µM
- IC50 (SH-SY5Y): 42.1 µM
- IC50 [3]: > 128 µM

Compound: C[C@]12CC[C@H](OC(=O)Cn3cc(CN4C(=O)C(=O)c5c(Cl)cccc54)nn3)CC1=CC[C@@H]1[C@@H]2CC[C@]2(C)C(=O)CC[C@@H]12
- IC50 [1]: 124 µM
- IC50 [2]: > 128 µM
- IC50 (MCF7): > 128 µM
- IC50 (SH-SY5Y): 18.5 µM
- IC50 [3]: 33.1 µM

Compound: C[C@]12CC[C@H](OC(=O)Cn3cc(CNc4ccc(Br)cc4)nn3)CC1=CC[C@@H]1[C@@H]2CC[C@]2(C)C(=O)CC[C@@H]12
- IC50 [1]: 37.1 µM
- IC50 [2]: 19.4 µM
- IC50 (MCF7): 27.6 µM
- IC50 (SH-SY5Y): 59.4 µM
- IC50 [3]: 86.7 µM

Compound: C[C@]12CC[C@H](OC(=O)Cn3cc(COc4ccc5ccc(=O)oc5c4)nn3)CC1=CC[C@@H]1[C@@H]2CC[C@]2(C)C(=O)CC[C@@H]12
- IC50 [1]: > 128 µM
- IC50 [2]: > 128 µM
- IC50 (MCF7): > 128 µM
- IC50 (SH-SY5Y): 54.9 µM
- IC50 [3]: 43.7 µM
